From patent US10918891B2, “Cosmetic treatment method for the skin” (SYNTIVIA, priority 2016, dated 2021)

What was measured:
[1] = test system: normal human Fibroblasts (NHDF); assay: Cellular viability test with cadmium on NHDF; assay type: cell-based; conditions: pretreatment 24 h and treatment 24 h with (Ia) 10 ppm, Cd 3 ppm, read at 450 nm, CTL (Cd 3 ppm) 0.95
Method: (§1) The cells used for this example are normal human Fibroblasts (NHDF).
A cellular viability test with cadmium is carried out in order to know the protective effect of the compound (Ia) against polluting stress. Cadmium (Cd) is a toxic and ecotoxic heavy metal found in the environment.
The cells are cultured at the concentration of 7000 cells per well of 96-well plates.
The pretreatment is carried out 24 hours after the inoculation of the cells with the compound (Ia) at 10 ppm in an aqueous solution with 0.1% dimethylsulfoxide, or without compound (Ia) for 24 hours.
After the pretreatment, a treatment with cadmium is carried out. The cells are placed in the presence of cadmium at 3 ppm+compound (Ia) at 10 ppm, or only in the presence of cadmium at 3 ppm (CTL) for 24 hours at 37° C., 5% CO2. The control without stress (CTL without stress) corresponds to the cells not having undergone a treatment with cadmium.

[2] = test system: Sirtuin-6; assay: Protein expression of Sirtuin-6 by immunofluorescence in NHDF; assay type: cell-based, human; conditions: (Ia) 10 ppm, 24 hours
Method: as §1
In this example, the expression of Sirtuin-6 is measured at the protein level by the technique of immunofluorescence, after in vitro incubation of the cells in the absence or in the presence of compound (Ia) at a concentration of 10 ppm in an aqueous solution with 0.1% dimethylsulfoxide (DMSO).
The cells are cultured at the concentration of 5000 cells per well of 96-well plates, in the presence of standard culture medium for NHDF.
The contact with the compound (Ia) is carried out for 24 hours.
TGFβ is used as a positive control at the concentration of 10 ng/ml in an aqueous solution. A non-treated control is also carried out.
The supernatant is eliminated and the cells are prepared for the fluorescent marking. The cells are fixed in the presence of 3.7% formaldehyde, then permeabilised in a buffer containing 1% Triton®, finally the cells are rinsed and incubated in the presence of an anti-SIRT6 antibody (Abcam) for 2 hours. After washing, the cells are incubated in the presence of the secondary antibody (Alexa GAR488, Invitrogen) for 1 h. After washing, the cells are incubated in the presence of DAPI for 10 min, then rinsed once again.
The fluorescence is then quantified using an automated microscope (ArrayScan® (Cellomics®)).

[3] = test system: NHEK cells; assay: Cellular viability (WST1) of NHEK exposed to cigarette extract; assay type: cell-based, human; conditions: (Ia) 10 ppm pretreatment 24 h and treatment 24 h; cigarette extract diluted 1/50; WST1, 450 nm; Control 2.070, Cigarette extract 1.392
Method: The cells used for this example are normal human Fibroblasts (NHDF) and normal human epidermal Keratinocytes (NHEK).
A cigarette extract is prepared using a laboratory device allowing the sucking up of cigarette smoke via a suction system, and the controlled bubbling of this cigarette smoke into the solution studied, which is then filtered on a 0.22 μm filter made of Polyether sulfone (PES).
The cells are cultured at the concentration of 7000 cells per well of 96-well plates (NHDF) or 8000 cells per well (NHEK), in the presence of standard culture medium for NHDF or NHEK (for 24 h 37° C., 5% CO2).
After pretreatment of the cells with the compound (Ia) at 10 ppm for 24 h the cells are treated with the cigarette extract diluted to 1/50th in the culture medium with or without the compound (Ia) at 10 ppm for 24 h. The absorbance is read a first time at […] (Multiskan®).
Then, 10 μl of WST1 (Roche) are introduced into the medium and the cells are incubated for 3 hours.
The absorbance at 450 nm is measured after the addition of WST1 (Multiskan®) and the results obtained, in terms of cellular viability, are shown in tables 11 and 12 below. The treated cells (Cigarette extract+(Ia)) are compared to the untreated cells (Control) or to the cells having only undergone exposure to the cigarette extract (Cigarette extract).

[4] = test system: NHEK cells; assay: Survival (WST1) of NHEK keratinocytes exposed to cigarette extract, comparison with caffeic acid; assay type: cell-based, human; conditions: compound 10 ppm pretreatment 24 h and treatment 24 h, cigarette extract 1/50, cigarette extract alone 55% survival, FIG. 4
Method: This study aims to compare the protective or repairing effect of the compounds according to the invention (Ia) and (Ib) with respect to the damage induced on the skin by a cigarette extract. For comparison, caffeic acid (supplier: Acros) is also tested. This acid forms a basic unit of the compounds (Ia) and (Ib) according to the invention.
The NHEK cells are inoculated in a 96-well plate in a suitable medium (Promocell), at a rate of 9000 cells per well, and incubated 24 h at 37° C. and 5% carbon dioxide.
The compounds to be tested are prepared as follows: • (Ia): 10 mg of compound+909 μL of DMSO • (Ib): 7 mg of compound+636 μL of DMSO • caffeic acid: 10 mg of compound+909 μL of DMSO
Each stock solution above is diluted 1000 times, to 10 ppm in the culture medium, then the solutions obtained are filtered by means of a nylon filter (0.22 μm). The final solutions are concentrated to 10 ppm in 0.1% DMSO.
Solutions at 20 ppm in 0.2% DMSO are also prepared in a similar manner, for dilution in the cigarette extract.
An extract of 20 cigarettes is prepared as indicated in example 14 above. This extract is then diluted to 1/50 in the culture medium; or to 2/50 in the culture medium, then to 1/2 in the culture medium, to which the compound to be tested is added at 20 ppm.
The cells are pretreated for 24 h with the compound to be tested at 10 ppm in the culture medium.
The cells are then treated with the cigarette extract diluted to 1/50th with or without the compound tested at 10 ppm for 24 h.
3 h before the end of the test, 10 μl of WST1 cellular proliferation reactant (Roche) are added into each well. The absorbance at 450 nm is measured before and after the addition of WST1 reactant, by means of a Multiskan® reader. The treated cells are compared to the untreated cells and to the cells exposed to the cigarette extract.

Cc1ncc(CO)c(CNC(=O)/C=C/c2ccc(O)c(O)c2)c1O [Compound (Ia)]
Cellular viability during the exposure or non-exposure to cadmium (optical density) [1]: 1.28 optical density | Protein expression of the Sirtuin-6 compared to the basal level, based on 100% [2]: 113.69% | Cellular viability on NHEK (Optical density) [3]: 2.589 Optical density | % survival of the cells [4]: 108%
